Reference: paper PMC6271783 (Molecules, 2014)
“Also recorded” adds a separate entry of the source.

Tests used:
rat α3β2 nAChRs [1] = target: T1, rat α3β2 nAChRs (Rattus norvegicus, UniProt P04757+P12390); experiment: biochemical
T1 construct: expressed in transfected cells; host or cells: Xenopus laevis oocytes injected with cRNA

[2] = type: physicochemical; settings: pH 7
rat α3β2 nAChRs [3] = target: T1, rat α3β2 nAChRs; type: biochemical
[4] = tested on: AChBPs from different species; settings: cited from earlier work
α3β2 nAChRs = settings: cited from earlier work

T1 sequence (P04757 26-499 limits assumed): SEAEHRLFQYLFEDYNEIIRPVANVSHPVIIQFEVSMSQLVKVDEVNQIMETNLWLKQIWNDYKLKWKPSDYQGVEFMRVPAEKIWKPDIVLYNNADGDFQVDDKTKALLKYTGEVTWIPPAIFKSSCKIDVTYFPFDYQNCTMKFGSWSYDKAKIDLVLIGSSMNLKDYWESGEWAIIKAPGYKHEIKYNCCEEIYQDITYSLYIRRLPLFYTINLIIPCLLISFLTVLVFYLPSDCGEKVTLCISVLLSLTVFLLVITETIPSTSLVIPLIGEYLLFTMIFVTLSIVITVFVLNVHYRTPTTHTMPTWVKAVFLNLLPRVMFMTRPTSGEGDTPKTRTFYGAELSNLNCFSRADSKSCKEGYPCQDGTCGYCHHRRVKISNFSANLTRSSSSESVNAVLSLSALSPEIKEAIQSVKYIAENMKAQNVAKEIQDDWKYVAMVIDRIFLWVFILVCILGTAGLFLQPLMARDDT
T1 sequence (P12390 25-500 limits assumed): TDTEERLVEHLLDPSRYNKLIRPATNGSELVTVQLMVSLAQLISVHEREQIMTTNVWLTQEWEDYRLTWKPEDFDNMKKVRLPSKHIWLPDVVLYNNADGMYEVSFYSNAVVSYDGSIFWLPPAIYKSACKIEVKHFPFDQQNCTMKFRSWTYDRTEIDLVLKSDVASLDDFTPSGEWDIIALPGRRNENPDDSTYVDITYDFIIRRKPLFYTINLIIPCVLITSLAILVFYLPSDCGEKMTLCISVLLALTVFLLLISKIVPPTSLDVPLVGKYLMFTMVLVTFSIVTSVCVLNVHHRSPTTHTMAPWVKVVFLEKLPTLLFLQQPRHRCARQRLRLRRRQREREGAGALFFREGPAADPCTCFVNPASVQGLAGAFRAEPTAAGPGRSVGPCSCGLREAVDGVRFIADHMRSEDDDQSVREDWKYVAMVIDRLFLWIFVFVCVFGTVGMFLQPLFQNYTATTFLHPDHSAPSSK

Row | SMILES | IC50 (rat α3β2 nAChRs [1]) [nM] | activity on α3β2 nAChRs (rat α3β2 nAChRs [1]) | fold less potent than globular isomer (rat α3β2 nAChRs [1]) | inhibition at 0.5 µM (rat α3β2 nAChRs [1]; read-out: inhibition of ACh evoked current amplitude) [%] | secondary structure by CD [2] | fold more potent than ribbon isomer (rat α3β2 nAChRs [1]) | inhibition of ACh-evoked response (rat α3β2 nAChRs [1]) | reversibility of inhibition (rat α3β2 nAChRs [1]) | CD minimum [2] | CD minimum, second of double minimum [2] [nm] | relative potency among venom components (rat α3β2 nAChRs [3]) | affinity to AChBPs [4] | selectivity (α3β2 nAChRs)
1 | CC[C@H](C)[C@@H]1NC(=O)[C@@H]2CSSC[C@H](NC(=O)[C@@H](NC(=O)CN)CSSC[C@@H](C(N)=O)NC(=O)[C@H](CC(C)C)NC(=O)[C@H](CC(=O)O)NC(=O)[C@@H]3CCCN3C(=O)[C@H](CC(N)=O)NC(=O)[C@H](CC(N)=O)NC(=O)[C@H](C)NC1=O)C(=O)N[C@@H](CO)C(=O)N[C@@H](CCCNC(=N)N)C(=O)N1CCC[C@H]1C(=O)N1CCC[C@H]1C(=O)N2 [ribbon TxIA] | 430 | weaker potency | ~ 80 times | ~65 | between them | – | – | – | – | – | – | – | –
2 | CC[C@H](C)[C@@H]1NC(=O)[C@@H]2CSSC[C@H](NC(=O)CN)C(=O)N[C@@H](CSSC[C@@H](C(N)=O)NC(=O)[C@H](CC(C)C)NC(=O)[C@H](CC(=O)O)NC(=O)[C@@H]3CCCN3C(=O)[C@H](CC(N)=O)NC(=O)[C@H](CC(N)=O)NC(=O)[C@H](C)NC1=O)C(=O)N[C@@H](CO)C(=O)N[C@@H](CCCNC(=N)N)C(=O)N1CCC[C@H]1C(=O)N1CCC[C@H]1C(=O)N2 [globular TxIA, α-conotoxin TxIA] | 5.4 | most potent isoform; also recorded: strongly inhibited; also recorded: most active form | – | – | contained some α-helical structure | ~ 80 -fold | almost complete inhibition | reversibly inhibited | around 208 nm | ~222 | most potent component; also recorded: highest potency | high affinity | selectively targeted the α3β2 nAChRs
